The record followed here is paper PMC6289299 (Inorganic chemistry, 2018).

The nature of data set [1]: physchem. Type of data set: physicochemical.
Data set [2] can be described thus: physchem. Type of data set: physicochemical. The source holds these as a separate data set.
For data set [3], the target named is human carbonic anhydrase II (hCAII) (Homo sapiens, UniProt P00918). Description: hCAII assay. It counts as biochemical.

The term pKa denotes the pH at which an ionisable group is half protonated. One may read the logP as the decadic logarithm of the partition coefficient of the neutral form, usually between octanol and water. For orientation: logD means the decadic logarithm of the distribution of all forms, ionised or not, between an organic phase and buffer at a given pH. Higher therefore signals higher lipophilicity. As a reminder, the IC50 is the concentration needed to halve the response being measured.

SMILES strings stand for the structures.

In the case of `O=C(O)c1ccccn1` [Compound 1, picolinic acid], the pKa in data set [1] was less than 1.5. In data set [2], this compound came in with a logP of less than -2. In addition, in data set [2] (pH 7.4), the logD was less than -2. The compound further registered a half-maximal inhibitory concentration (IC50) in data set [3] greater than 1 mM.
